Data published in publication PMC12865225 (Clinical and Translational Science, 2026).
“And” between values parts separate entries of the source, which are not always exact repeats. Identical values can stand only once. Marks after values point to notes of the source that are not given here.

How the values were obtained:
OATP1B1 = target: T1, OATP1B1 (Homo sapiens, UniProt Q9Y6L6); test: OATP1B1 inhibition, rosuvastatin uptake into transporter-expressing HEK293 cells; assay type: cell-based; conditions: for IC50: IC50 (95% CI), μM OATP1B1, 2.5 μM rosuvastatin, 2 min, 30 min preincubation; for Calculated R-value OATP1B1: R = 1 + (I in,max,u/IC50), FDA cut-off ≥ 1.1
T1 construct: expressed in transfected cells; host or cells: HEK293 (recombinant baculovirus-mediated transduction)
T1 sequence (Q9Y6L6 1-691): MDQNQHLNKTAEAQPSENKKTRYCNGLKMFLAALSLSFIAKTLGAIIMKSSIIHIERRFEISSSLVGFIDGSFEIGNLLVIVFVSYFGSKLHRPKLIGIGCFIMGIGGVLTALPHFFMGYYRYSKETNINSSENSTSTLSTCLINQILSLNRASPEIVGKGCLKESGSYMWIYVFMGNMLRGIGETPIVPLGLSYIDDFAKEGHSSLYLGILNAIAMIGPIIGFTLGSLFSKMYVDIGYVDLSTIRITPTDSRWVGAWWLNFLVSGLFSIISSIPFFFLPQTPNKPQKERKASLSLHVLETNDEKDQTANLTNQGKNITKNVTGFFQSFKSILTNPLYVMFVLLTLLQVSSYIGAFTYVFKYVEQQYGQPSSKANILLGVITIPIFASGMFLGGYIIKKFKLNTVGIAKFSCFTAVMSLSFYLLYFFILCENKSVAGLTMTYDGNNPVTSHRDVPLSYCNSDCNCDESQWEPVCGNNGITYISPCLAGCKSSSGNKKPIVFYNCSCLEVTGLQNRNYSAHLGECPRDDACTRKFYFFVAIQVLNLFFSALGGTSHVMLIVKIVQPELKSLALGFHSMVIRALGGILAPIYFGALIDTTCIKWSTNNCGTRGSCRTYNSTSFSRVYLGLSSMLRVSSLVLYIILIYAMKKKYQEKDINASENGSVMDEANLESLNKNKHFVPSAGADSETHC
Protocol: (§1) The human transporters OATP1B1, OATP1B3, OATP2B1, and OAT1‐OAT4 and a negative control protein (enhanced yellow fluorescent protein, eYFP) were transiently expressed in human embryonic kidney 293 (HEK293) cells by recombinant baculovirus‐mediated transduction. Baculoviruses carrying human genes for the transporters were prepared as reported previously. HEK293 cells were cultured in DMEM containing 10% fetal bovine serum at 37°C and 5% CO2 and passaged two to three times per week. For the transport studies, 0.05 × 10^6 cells for 48‐well plates (OATPs) or 0.06 × 10^6 cells for 24‐well plates (OATs) were seeded onto cell‐culture treated well plates coated with poly‐D‐lysine. After 1 day, cells were transduced to produce recombinant proteins by changing media to DMEM containing 30 μL (48‐well plates) or 60 μL (24‐well plates) of recombinant baculovirus and 3 mM (OATs) or 5 mM (OATPs) sodium butyrate in a total media volume of 500 μL. The cells were cultured for a further 2 days before the transport assays.
For the transport studies, media were removed and cells were washed once with warm transport uptake buffer (TP‐buffer—pH 7.4 HBSS with 25 mM HEPES and 4 mM sodium bicarbonate). Each experiment included triplicate (OATP) or duplicate (OAT) samples for every test condition. The uptake was started by removing liquid from wells and applying warm TP‐buffer (200 μL for 24‐well plates or 125 μL for 48‐well plates) containing a test compound to cells. Transport assays were terminated after a pre‐specified incubation time (reported in figure legends) by removing substrate solution and washing cells three times with cold TP‐buffer (300 μL for 48‐well plates and 400 μL for 24‐well plates). For the liquid chromatography mass spectrometry (LC–MS) analysis, compounds were extracted from cells with 125 μL (48‐well plates) or 250 μL (24‐well plates) of an ultrapure‐water solution containing 75% methanol and 0.1% formic acid, shaking at 250 RPM for 30 min. […] Samples were transferred to well plates, centrifuged at 3000 g for 30 min, and transferred to a new well plate for the analysis.
(§2) In the OATP inhibition assays, inhibitors in warm TP‐buffer were directly applied to cells after media removal, followed by a 30‐min preincubation step in the presence of inhibitors. […] OAT1 and OAT3 cells were lysed with 200 μL of 1 M sodium hydroxide for 10 min, and 150 μL of these samples were transferred to a black well plate for fluorescein quantification. […]
(§3) For the inhibition data analysis, the average of measured concentrations in the control cells was subtracted from the average of measured concentrations in transporter‐expressing cells for each inhibitor concentration and then normalized to the vehicle sample that represents 100% transport activity. […]

OAT2 [1] = system: T2, OAT2; test: OAT2 inhibition, methotrexate uptake into HEK293 cells; assay type: cell-based, human; conditions: 200 μM inhibitor, 34 nM methotrexate
T2 construct: expressed in transfected cells; host or cells: HEK293 (recombinant baculovirus-mediated transduction)
Protocol: as §1, with “After 1 day, cells were transduced to produce recombinant proteins by changing media to DMEM containing 30 μL (48‐well plates) or 60 μL (24‐well plates) of recombinant baculovirus and 3 mM (OATs) or 5 mM (OATPs) sodium butyrate in a total media volume of 500 μL. The cells were cultured for a further 2 days before the transport assays.” left out
as §2, §3

OAT1 = system: T3, OAT1; test: Uptake transport assay in OAT1-expressing HEK293 cells; assay type: cell-based, human; conditions: 2 and 50 μM, 10 min
T3 construct: expressed in transfected cells; host or cells: HEK293 (recombinant baculovirus-mediated transduction)
Protocol: as §1
(§4) For the transport studies, media were removed and cells were washed once with warm transport uptake buffer (TP‐buffer—pH 7.4 HBSS with 25 mM HEPES and 4 mM sodium bicarbonate). Each experiment included triplicate (OATP) or duplicate (OAT) samples for every test condition. […]

OAT2 [2] = system: T2, OAT2; test: Uptake transport assay in OAT2-expressing HEK293 cells; assay type: cell-based, human; conditions: 2 and 50 μM, 10 min
Protocol: as §1, §4

OAT3 = target: T4, OAT3 (Homo sapiens, UniProt Q8TCC7); test: OAT3 inhibition with 30 min preincubation, fluorescein
T4 sequence (Q8TCC7 1-542): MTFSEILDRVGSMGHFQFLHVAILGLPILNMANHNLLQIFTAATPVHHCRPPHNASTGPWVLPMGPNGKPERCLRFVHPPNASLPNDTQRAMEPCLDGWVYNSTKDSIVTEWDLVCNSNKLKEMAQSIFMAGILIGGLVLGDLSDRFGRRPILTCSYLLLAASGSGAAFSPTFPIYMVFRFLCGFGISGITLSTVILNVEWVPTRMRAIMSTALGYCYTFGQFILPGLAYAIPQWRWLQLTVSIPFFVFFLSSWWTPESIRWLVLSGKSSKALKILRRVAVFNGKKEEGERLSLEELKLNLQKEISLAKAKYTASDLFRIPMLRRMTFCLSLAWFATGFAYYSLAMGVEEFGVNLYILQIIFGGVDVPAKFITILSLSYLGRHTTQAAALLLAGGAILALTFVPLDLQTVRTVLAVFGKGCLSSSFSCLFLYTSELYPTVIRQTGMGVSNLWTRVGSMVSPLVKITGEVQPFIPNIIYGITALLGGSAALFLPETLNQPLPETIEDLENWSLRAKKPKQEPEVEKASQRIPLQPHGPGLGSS
Protocol: In the OATP inhibition assays, inhibitors in warm TP‐buffer were directly applied to cells after media removal, followed by a 30‐min preincubation step in the presence of inhibitors. No preincubation step was included in the OAT inhibition assays. The inhibition assays were conducted as described above, except that inhibitors were included in the substrate solution. The rosuvastatin concentration was 2.5 μM in the OATP inhibition assays, and the transport assays were conducted for 2 min [24]. For the inhibition studies of OAT1 and OAT3, 5 μM fluorescein was assayed within 5 min, while 34 nM methotrexate within a 10 min assay was employed as the substrate for OAT2 and OAT4 [25, 26, 27, 28]. OAT1 and OAT3 cells were lysed with 200 μL of 1 M sodium hydroxide for 10 min, and 150 μL of these samples were transferred to a black well plate for fluorescein quantification. OAT2 and OAT4 cells were lysed with 200 μL of 0.1% Triton‐X100 for 10 min, and 150 μL of the samples were mixed with 4 mL of scintillation cocktail (Opti‐Fluor from PerkinElmer, Waltham, MA, USA). Each inhibition assay included a vehicle control without an inhibitor.
Cells were pre-incubated with the inhibitors and
vehicle for 30 min before the assay was initiated with fresh solutions of inhibitors and substrate.
The uptake into control cells was subtracted from the uptak e into OAT3-expressing cells for […]

Cc1onc(-c2c(Cl)cccc2Cl)c1C(=O)N[C@@H]1C(=O)N2[C@@H]1SC(C)(C)[C@@H]2C(=O)O [Dicloxacillin]
IC50 (OATP1B1): 3.9 µM and 3.86 µM
Calculated R-value OATP1B1 (OATP1B1): 2.4 ^a
inhibition of OAT2-mediated transport of methotrexate (OAT2 [1]): neither compound substantially inhibited
transport by OAT1 (OAT1): transported
transport by OAT2 (OAT2 [2]): transported
IC50 (OAT3): 18.3 µM

Cc1onc(-c2c(F)cccc2Cl)c1C(=O)N[C@@H]1C(=O)N2[C@@H]1SC(C)(C)[C@@H]2C(=O)O [Flucloxacillin]
IC50 (OATP1B1): 31 µM
Calculated R-value OATP1B1 (OATP1B1): 1.5 ^a
inhibition of OAT2-mediated transport of methotrexate (OAT2 [1]): neither compound substantially inhibited
transport by OAT1 (OAT1): transported
transport by OAT2 (OAT2 [2]): transported
IC50 (OAT3): 30.1 µM
